Patent US20120277209A1, “PYRAZINE COMPOUNDS AS PHOSPHODIESTERASE 10 INHIBITORS” (Amgen Inc., priority 2009, published 2012)

Target: PDE10 (UniProt Q9Y233)
Assay: PDE10 enzyme inhibition, IMAP TR-FRET assay (MPDE10A7 Enzyme Activity and Inhibition)
Format: biochemical
Conditions: IC50 class against PDE10; read-out: IC50
Method in brief: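 IMAP TR-FRET read-out of PDE10 hydrolysis of fluorescein-cAMP or -cGMP (60 min, room temperature), after a 30 min compound-enzyme preincubation. Enzyme source was PDE10A or tissue homogenate. Averaged IC50s are reported as five range classes.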

IC50 | Compound
25 to 100 nM | OCCC1CCN(c2nccnc2Oc2ccc(Nc3nc4ccccc4s3)cc2)CC1 [Example 86, 2-(1-(3-(4-(benzo[d]thiazol-2-ylamino)phenoxy)pyrazin-2-yl)piperidin-4-yl)ethanol]
25 to 100 nM | O=C(c1ccc(Oc2nccnc2OCc2ccccn2)cc1)c1nc2ccccc2[nH]1 [Example 166, (1H-benzo[d]imidazol-2-yl)(4-(3-(pyridin-2-ylmethoxy)pyrazin-2-yloxy)phenyl)methanone]
< 25 nM | CC(O)C(=O)N1CCC(c2nccnc2Oc2ccc(Nc3nc4ccccc4s3)cc2)CC1 (centres unmarked) [Example 239, 1-(4-(3-(4-(benzo[d]thiazol-2-ylamino)phenoxy)pyrazin-2-yl)piperidin-1-yl)-2-hydroxypropan-1-one]
< 25 nM | O=C(c1ccc(Oc2nccnc2C(=O)NCCc2ccccn2)cc1)c1nc2ccccc2[nH]1 [Example 257, 3-(4-(1H-benzo[d]imidazole-2-carbonyl)phenoxy)-N-(2-(pyridin-2-yl)ethyl)pyrazine-2-carboxamide]
25 to 100 nM | c1ccc2sc(Nc3ccc(Oc4nccnc4N4CCC5(CC4)OCCO5)cc3)nc2c1 [Example 99, N-(4-(3-(1,4-dioxa-8-azaspiro[4.5]-decan-8-yl)pyrazin-2-yloxy)phenyl)-benzo[d]thiazol-2-amine]
< 25 nM | Fc1ccc2sc(Nc3ccc(Oc4nccnc4C4CCOCC4)cc3)nc2c1 [Example 218, 5-fluoro-N-(4-(3-(tetrahydro-2H-pyran-4-yl)pyrazin-2-yloxy)phenyl)benzo[d]thiazol-2-amine]
< 25 nM | CC(=O)OC(C)C(=O)N1CCC(c2nccnc2Oc2ccc(C(=O)c3nc4ccccc4[nH]3)cc2)CC1 (centres unmarked) [Example 238, 1-(4-(3-(4-(1H-benzo[d]imidazole-2-carbonyl)phenoxy)pyrazin-2-yl)piperidin-1-yl)-1-oxopropan-2-yl acetate]
< 25 nM | O=C1CCC(c2nccnc2Oc2ccc(C(=O)c3nc4ccccc4[nH]3)cc2)CC1 [Example 195, 4-(2-(4-(1H-BENZO[D]IMIDAZOLE-2-CARBONYL)PHENOXY)PYRAZIN-3-YL)CYCLOHEXANONE]
< 25 nM | CC(=O)N1CCC(c2nccnc2Oc2ccc(C(O)c3nc4ccccc4[nH]3)cc2)CC1 (centres unmarked) [Example 228, 1-(4-(3-(4-((1H-benzo[d]imidazol-2-yl)(hydroxy)methyl)phenoxy)pyrazin-2-yl)piperidin-1-yl)ethanone]
< 25 nM | O=C(c1ccc(Oc2nccnc2-c2ccnc(C(F)(F)F)c2)cc1)c1nc2ccccc2[nH]1 [Example 104, (1H-BENZO[D]IMIDAZOL-2-YL)(4-(3-(2-(TRIFLUOROMETHYL)PYRIDIN-4-YL)PYRAZIN-2-YLOXY)PHENYL)METHANONE]
< 25 nM | COC1CCN(c2nccnc2Oc2ccc(Nc3nc4ccccc4s3)cc2)CC1 [Example 92, N-(4-(3-(4-methoxypiperidin-1-yl)pyrazin-2-yloxy)phenyl)-benzo[d]thiazol-2-amine]
< 25 nM | O[C@H]1CCC[C@@H](c2nccnc2Oc2ccc(Nc3nc4ccccc4s3)cc2)C1 (racemic) [Example 191, (rac)-cis-3-(3-(4-(benzo[d]thiazol-2-ylamino)phenoxy)pyrazin-2-yl)cyclohexanol]
25 to 100 nM | Fc1ccc2[nH]c(Nc3ccc(Oc4nccnc4N4CCOCC4)cc3)nc2c1 [Example 64, 5-fluoro-N-(4-(3-morpholinopyrazin-2-yloxy)phenyl)-1H-benzo[d]imidazol-2-amine]
25 to 100 nM | O=C(c1ccc(Oc2nccnc2C(=O)NCCO)cc1)c1nc2ccccc2[nH]1 [Example 258, 3-(4-(1H-benzo[d]imidazole-2-carbonyl)phenoxy)-N-(2-hydroxyethyl)pyrazine-2-carboxamide]
< 25 nM | O=C(c1ccc(Oc2nccnc2C2(F)CCOCC2)cc1)c1nc2ccccc2[nH]1 [Example 203, (1H-BENZO[D]IMIDAZOL-2-YL)(4-(3-(4-FLUOROTETRAHYDRO-2H-PYRAN-4-YL)PYRAZIN-2-YLOXY)PHENYL)METHANONE]
25 to 100 nM | O=C(c1ccc(Oc2nccnc2C2=CCOCC2)cc1)c1nc2ncccc2[nH]1 [Example 131, (4-(3-(3,6-dihydro-2H-pyran-4-yl)pyrazin-2-yloxy)phenyl)(1H-imidazo[4,5-b]pyridin-2-yl)methanone]
100 to 250 nM | CC#CCOc1nccnc1Oc1ccc(C(=O)c2nc3ccccc3[nH]2)cc1 [Example 169, (1H-benzo[d]imidazol-2-yl)(4-(3-(but-2-ynyloxy)pyrazin-2-yloxy)phenyl)methanone]
< 25 nM | c1ccc2sc(Nc3ccc(Oc4nccnc4C4CCCC4)cc3)nc2c1 [compound 223, N-(4-(3-cyclopentylpyrazin-2-yloxy)phenyl)benzo [d]thiazol-2-amine]
< 25 nM | Cc1ccc(-c2nccnc2Oc2ccc(Nc3nc4ccccc4s3)cc2)cn1 [Example 140, N-(4-(3-(6-methylpyridin-3-yl)pyrazin-2-yloxy)phenyl)benzo[d]thiazol-2-amine]
< 25 nM | O=C(c1ccc(Oc2nccnc2[C@H]2CCC[C@@H](O)C2)cc1)c1nc2ccccc2[nH]1 (racemic) [Example 189, (rac)-cis-(1H-benzo[d]imidazol-2-yl)(4-(3-(3-hydroxycyclohexyl)pyrazin-2-yloxy)phenyl)methanone]
100 to 250 nM | c1ccc2sc(Nc3ccc(Oc4nccnc4-c4ccc(N5CCOCC5)nc4)cc3)nc2c1 [Example 138, N-(4-(3-(6-morpholinopyridin-3-yl)pyrazin-2-yloxy)phenyl)benzo[d]thiazol-2-amine]
< 25 nM | OC1CCN(c2nccnc2Oc2ccc(Nc3nc4ccccc4s3)cc2)CC1 [Example 67, 1-(3-(4-(benzo[d]thiazol-2-ylamino)phenoxy)pyrazin-2-yl)piperidin-4-ol]

Same assay, conditions: PDE10 enzyme inhibition; average IC50 data for each compound; read-out: Average IC50

IC50 | Compound
4.21 nM | COC(=O)[C@H]1CCN(c2nccnc2Oc2ccc(C(=O)c3nc4ccccc4[nH]3)cc2)C1 [drawing 837]
26.2 nM | CC(C)COc1nccnc1Oc1ccc(C(=O)c2nc3ccccc3[nH]2)cc1 [drawing 845]
1.83 nM | O=C(c1ccc(Oc2nccnc2C2(F)CCOCC2)cc1)c1nc2ccccc2[nH]1 [drawing 924]
2.68 nM | COc1ncccc1-c1nccnc1Oc1ccc(Nc2nc3ccccc3s2)c(F)c1 [drawing 972]
3.05 nM | C[C@@H]1CN(c2nccnc2Oc2ccc(Nc3nc4ccccc4s3)cc2)CC(=O)N1 [drawing 834]
2.43 nM | c1ccc2sc(Nc3ccc(Oc4nccnc4[C@H]4CCCOC4)cc3)nc2c1 (stereo in doubt)
6.41 nM | O=C1CN(c2nccnc2Oc2ccc(Nc3nc4ccccc4s3)cc2)CCN1 [drawing 749]
7.2 nM | COc1ncccc1-c1nccnc1Oc1ccc(Nc2nc3ccc(F)cc3s2)cc1 [drawing 959]
23.2 nM | COc1ncc(-c2nccnc2Oc2ccc(Nc3nc4ccccc4s3)cc2)cn1 [drawing 783]
2.5 nM | N#CC1(c2nccnc2Oc2ccc(C(=O)c3nc4ccccc4[nH]3)cc2)CCOCC1 [drawing 868]
0.606 nM | c1ccc2sc(Nc3ccc(Oc4nccnc4C4CCOCC4)cc3)nc2c1 [drawing 864]
17.5 nM | Cc1cc(-c2nccnc2Oc2ccc(Nc3nc4ccccc4s3)cc2)ccn1 [drawing 750]
3.53 nM | O=C(c1ccc(Oc2nccnc2-c2cccnc2F)cc1)c1nc2ccccc2[nH]1
1.37 nM | COC[C@@H]1CCCN1c1nccnc1Oc1ccc(C(=O)c2nc3ccccc3[nH]2)cc1
0.025 nM | N#CCC(=O)N1CCC(c2nccnc2Oc2ccc(C(=O)c3nc4ccccc4[nH]3)cc2)CC1 [drawing 997]
0.101 nM | c1ccc2[nH]c(Nc3ccc(Oc4nccnc4C4CCOCC4)cc3)nc2c1 [drawing 863]
154 nM | CC1(C)CCC(=O)[C@@H](c2nccnc2Oc2ccc(C(=O)c3nc4ccccc4[nH]3)cc2)C1
7.76 nM | COc1ncccc1-c1nccnc1Oc1ccc(Nc2nc3cccc(F)c3s2)cc1 [drawing 950]
70 nM | CC(C)(C)OC(=O)N1CC=C(c2nccnc2Oc2ccc(Nc3nc4ccccc4s3)c(F)c2)CC1 [drawing 983]
0.992 nM | O=C(c1ccc(Oc2nccnc2[C@@H]2CCC[C@@H](O)C2)cc1)c1nc2ccccc2[nH]1
673 nM | CC#CCOc1nccnc1Oc1ccc(C(=O)c2nc3ccccc3[nH]2)cc1 [drawing 852]
0.186 nM | COc1cccc2nc(Nc3ccc(Oc4nccnc4C4CCOCC4)cc3)[nH]c12 [drawing 941]
0.105 nM | [2H]C([2H])([2H])C(=O)N1CCC(c2nccnc2Oc2ccc(C(=O)c3nc4ccccc4[nH]3)cc2)CC1 [drawing 993]
31.7 nM | O=C(c1ccc(Oc2nccnc2C2=CCOCC2)cc1)c1nc2ncccc2[nH]1 [drawing 879]
1.18 nM | O=C(c1ccc(Oc2nccnc2N2CCC(C(=O)O)CC2)cc1)c1nc2ccccc2[nH]1
164 nM | O=C(c1ccc(Oc2nccnc2OCC2CC2)cc1)c1nc2ccccc2[nH]1 [drawing 846]
287 nM | O=C(c1ccc(Oc2nccnc2Cl)cc1)c1nc2ccccc2[nH]1 [drawing 714]

Same assay, conditions: PDE10 enzyme inhibition; chiral compounds separated from racemic mixtures; read-out: IC50

IC50 | Compound
< 25 nM | O[C@H]1CCC[C@H](c2nccnc2Oc2ccc(Nc3nc4ccccc4s3)cc2)C1 [Example 275, (1S,3S)-3-(3-(4-(benzo[d]thiazol-2-ylamino)phenoxy)pyrazin-2-yl)cyclohexanol]
< 25 nM | O[C@@H]1CCC[C@H](c2nccnc2Oc2ccc(Nc3nc4ccccc4s3)cc2)C1 [Example 272, (1R,3S)-3-(3-(4-(benzo[d]thiazol-2-ylamino)phenoxy)pyrazin-2-yl)cyclohexanol]
< 25 nM | C[C@@H](F)C(=O)N1CCC(c2nccnc2Oc2ccc(Nc3nc4ccccc4s3)cc2)CC1 [Example 279, (R)-1-(4-(3-(4-(benzo[d]thiazol-2-ylamino)phenoxy)pyrazin-2-yl)piperidin-1-yl)-2-fluoropropan-1-one]
< 25 nM | C[C@H](F)C(=O)N1CCC(c2nccnc2Oc2ccc(Nc3nc4ccccc4s3)cc2)CC1 [Example 280, (S)-1-(4-(3-(4-(benzo[d]thiazol-2-ylamino)phenoxy)pyrazin-2-yl)piperidin-1-yl)-2-fluoropropan-1-one]
